Assay results reported in US8338565B2, “Macrocyclic compounds for inhibition of tumor necrosis factor alpha” (Ensemble Therapeutics Corporation, priority 2008, dated 2012).
Numbered stars: 1 amine (or outer) side, 2 acyl side, 3 side chain; on linkers, the order of the positions; unused ones are H or OH. Bridge positions count the residues as written; N and C are the ends. Square brackets hold non-standard residues; d marks the D form. Peptide text beside a SMILES is read from it. * marks the point of attachment. Tartaroyl(2R,3R-(OAc)2) = CC(=O)O[C@@H](C(=O)[*:1])[C@@H](OC(C)=O)C(=O)[*:2]; Phe(4-COOH) = N[C@@H](Cc1ccc(C(=O)O)cc1)C(=O)O; Phe(2,4-Cl2) = N[C@@H](Cc1ccc(Cl)cc1Cl)C(=O)O; Bip = N[C@@H](Cc1ccc(-c2ccccc2)cc1)C(=O)O; dPhe(4-NH2) = Nc1ccc(C[C@@H](N)C(=O)O)cc1; Phe(4-CN) = N#Cc1ccc(C[C@H](N)C(=O)O)cc1; dPhe(4-Br) = N[C@H](Cc1ccc(Br)cc1)C(=O)O; Phe(4-NH2) = Nc1ccc(C[C@H](N)C(=O)O)cc1; d(hPhe) = N[C@H](CCc1ccccc1)C(=O)O; Igl = N[C@H](C(=O)O)C1Cc2ccccc2C1; hPhe = N[C@@H](CCc1ccccc1)C(=O)O; d3Pal = N[C@H](Cc1cccnc1)C(=O)O; 2Thi = N[C@@H](Cc1cccs1)C(=O)O; d2Thi = N[C@H](Cc1cccs1)C(=O)O; NH(CH2)2O(CH2)2NH2 = NCCOCCN*; Suc = O=C(CCC(=O)[*:2])[*:1]; Nicotinoyl = O=C(c1cccnc1)*; Ac3c = NC1(C(=O)O)CC1; GABA = NCCCC(=O)O; βAla = NCCC(=O)O

Target: T1, TNFα / TNFα receptor (TNFα R1/Fc) (Homo sapiens, UniProt P01375)
T1 construct: purchased R&D Systems
T1 sequence (P01375 77-233 limits assumed, species assumed): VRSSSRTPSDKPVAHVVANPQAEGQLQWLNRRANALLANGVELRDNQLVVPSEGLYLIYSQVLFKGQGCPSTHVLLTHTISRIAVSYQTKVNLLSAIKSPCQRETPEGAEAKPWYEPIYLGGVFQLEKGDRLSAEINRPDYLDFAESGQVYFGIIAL
Test: Inhibition of binding of TNFα to the TNFα receptor (plate ELISA competition)
Details: Table 2; read-out: Activity (IC50, inhibition of TNFα binding to TNFα R1/Fc)
Summary of the method: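 Plates were coated with TNFα at 15 nM. Test compound and 8.33 nM receptor-Fc (PBST, 2% DMSO) were first mixed in solution for 30 min at room temperature, then transferred to the plates for another 30 min. Competition was read by absorbance at 450 nm after HRP anti-human IgG Fc detection with TMB.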

| IC50 | Compound |
| --- | --- |
| > 100 µM | CC(=O)O[C@H]1C(=O)Nc2ccc(cc2)C[C@H](C(=O)O)NC(=O)[C@@H](Cc2ccccc2)NC(=O)[C@H](Cc2ccc(-c3ccccc3)cc2)NC(=O)[C@@H](Cc2ccccc2)NC(=O)[C@@H]1OC(C)=O [Compound 222] ([dF][Bip][dF][dPhe(4-NH2)]-OH; linker N-4 via Tartaroyl(2R,3R-(OAc)2)) |
| > 100 µM | CC(=O)O[C@H]1C(=O)Nc2ccc(cc2)C[C@H](C(=O)N[C@@H](Cc2ccccc2)C(=O)O)NC(=O)[C@H](CCc2ccccc2)NC(=O)[C@@H](Cc2ccc(Br)cc2)NC(=O)[C@H](Cc2cccs2)NC(=O)[C@@H]1OC(C)=O [Compound 415] ([2Thi][dPhe(4-Br)][hPhe][dPhe(4-NH2)]F-OH; linker N-4 via Tartaroyl(2R,3R-(OAc)2)) |
| < 10 µM | O=C1COc2ccc(cc2)C[C@@H](C(=O)O)NC(=O)[C@H](CCc2ccccc2)NC(=O)[C@@H](Cc2ccc(-c3ccccc3)cc2)NC(=O)[C@H](Cc2ccc(O)cc2)N1 [Compound 686] |
| > 100 µM | N#Cc1ccc(C[C@@H]2NC(=O)[C@@H](Cc3cccs3)NC(=O)CCC(=O)Nc3ccc(cc3)C[C@@H](C(=O)O)NC(=O)[C@@H](Cc3ccccc3)NC2=O)cc1 [Compound 94] ([d2Thi][Phe(4-CN)][dF][Phe(4-NH2)]-OH; linker N-4 via Suc) |
| < 10 µM | O=C1COc2ccc(cc2)C[C@@H](C(=O)N[C@H](Cc2ccc(O)cc2)C(=O)O)NC(=O)[C@H](CCc2ccccc2)NC(=O)[C@@H](Cc2ccc(-c3ccccc3)cc2)NC(=O)[C@H](Cc2ccc(-c3ccncc3)cc2)N1 [Compound 586] |
| > 100 µM | O=C1CCC(=O)N[C@H](Cc2cccs2)C(=O)N[C@@H](CCCCNC(=O)c2cccnc2)C(=O)N[C@H](Cc2ccccc2)C(=O)N[C@H](C(=O)O)Cc2ccc(cc2)N1 [Compound 96] ([d2Thi]K(Nicotinoyl)[dF][Phe(4-NH2)]-OH; linker N-4 via Suc) |
| < 10 µM | O=C(O)[C@H](Cc1ccccc1)NC(=O)[C@H]1Cc2ccc(cc2)NC(=O)[C@H](O)[C@@H](O)C(=O)N[C@@H](Cc2cccs2)C(=O)N[C@H](Cc2ccc(-c3ccccc3)cc2)C(=O)N[C@@H](Cc2ccccc2)C(=O)N1 [Compound 434] |
| < 10 µM | CC(C)(NC(=O)[C@@H]1Cc2ccc(cc2)OCC(=O)N[C@@H](Cc2cccs2)C(=O)N[C@H](Cc2ccc(-c3ccccc3)cc2)C(=O)N[C@@H](CCc2ccccc2)C(=O)N1)C(=O)O [Compound 477] |
| > 100 µM | O=C(O)[C@@H]1Cc2ccc(cc2)NC(=O)[C@H](O)[C@@H](O)C(=O)N[C@H](Cc2cccs2)C(=O)N[C@@H](Cc2ccc(Br)cc2)C(=O)N[C@H](Cc2ccccc2)C(=O)N1 [Compound 293] |
| > 100 µM | O=C1COc2ccc(cc2)C[C@@H](C(=O)O)NC(=O)[C@@H](CCc2ccccc2)NC(=O)[C@H](Cc2ccc(-c3ccc(C(=O)OCc4ccccc4)cc3)cc2)NC(=O)[C@@H](Cc2cccs2)N1 [Compound 526] |
| < 10 µM | CC(=O)O[C@H]1C(=O)Nc2ccc(cc2)C[C@H](C(=O)N[C@@H](Cc2ccccc2)C(=O)O)NC(=O)[C@@H](Cc2ccccc2)NC(=O)[C@H](Cc2ccc(-c3ccccc3)cc2)NC(=O)[C@@H](Cc2cccs2)NC(=O)[C@@H]1OC(C)=O [Compound 394] ([d2Thi][Bip][dF][dPhe(4-NH2)]F-OH; linker N-4 via Tartaroyl(2R,3R-(OAc)2)) |
| < 10 µM | O=C(O)[C@H](Cc1ccccc1)NC(=O)[C@H]1Cc2ccc(cc2)NC(=O)[C@H](O)[C@@H](O)C(=O)N[C@@H](Cc2cccs2)C(=O)N[C@H](Cc2ccc(-c3ccccc3)cc2)C(=O)N[C@@H](CCc2ccccc2)C(=O)N1 [Compound 432] |
| 10 to 30 µM | O=C(O)[C@@H]1Cc2ccc(cc2)NC(=O)[C@H](O)[C@@H](O)C(=O)N[C@H](Cc2cccs2)C(=O)N[C@@H](Cc2ccc3ccccc3c2)C(=O)N[C@H](Cc2ccccc2)C(=O)N1 [Compound 190] |
| 30 to 100 µM | O=C(O)CCCNC(=O)[C@@H]1Cc2ccc(cc2)C(=O)N[C@H](CCc2ccccc2)C(=O)N[C@@H](Cc2ccc(-c3ccccc3)cc2)C(=O)N[C@H](Cc2ccccc2)C(=O)N1 [Compound 425] ([d(hPhe)][Bip][dF][Phe(4-COOH)][GABA]-OH; lactam N-4) |
| 10 to 30 µM | O=C(O)[C@@H]1Cc2ccc(cc2)NC(=O)[C@@H]2CCCC[C@H]2C(=O)N[C@H](Cc2cccs2)C(=O)N[C@@H](Cc2ccc(-c3ccccc3)cc2)C(=O)N[C@H](Cc2ccccc2)C(=O)N1 [Compound 9] |
| 30 to 100 µM | O=C1N[C@H](Cc2ccccc2)C(=O)N[C@@H](C(=O)O)Cc2ccc(cc2)NC(=O)[C@H](O)[C@@H](O)C(=O)N[C@H](Cc2ccccc2)C(=O)N[C@H]1Cc1ccc(Cl)cc1Cl [Compound 243] |
| < 10 µM | O=C(O)CCNC(=O)[C@@H]1Cc2ccc(cc2)C(=O)N[C@H](CCc2ccccc2)C(=O)N[C@@H](Cc2ccc(-c3ccccc3)cc2)C(=O)N[C@H](Cc2ccccc2)C(=O)N1 [Compound 424] ([d(hPhe)][Bip][dF][Phe(4-COOH)][βAla]-OH; lactam N-4) |
| > 100 µM | O=C1CCC(=O)N[C@H](CCc2ccccc2)C(=O)N[C@@H](Cc2ccc(-c3cccc(O)c3)cc2)C(=O)N[C@H](Cc2ccccc2)C(=O)N[C@H](C(=O)O)Cc2ccc(cc2)N1 [Compound 169] |

| IC50 | Compound |
| --- | --- |
| 10 to 30 µM | O=C1COc2ccc(cc2)C[C@@H](C(=O)O)NC(=O)[C@@H](CCc2ccccc2)NC(=O)[C@H](Cc2ccc(C(F)(F)F)cc2)NC(=O)[C@@H](Cc2ccc(C(F)(F)F)cc2)N1 [Compound 146] |
| 10 to 30 µM | O=C1COc2ccc(cc2)C[C@@H](C(=O)NCS(=O)(=O)O)NC(=O)[C@H](Cc2ccccc2F)NC(=O)[C@@H](Cc2ccc(-c3ccccc3)cc2)NC(=O)[C@H](Cc2cccs2)N1 [Compound 612] |
| < 10 µM | NCCOCCNC(=O)[C@@H]1Cc2ccc(cc2)NC(=O)CCC(=O)N[C@H](Cc2cccs2)C(=O)N[C@@H](Cc2ccc(-c3ccccc3)cc2)C(=O)N[C@H](Cc2ccccc2)C(=O)N1 [Compound 193] ([d2Thi][Bip][dF][Phe(4-NH2)]-{NH(CH2)2O(CH2)2NH2}; linker N-4 via Suc) |
| > 100 µM | O=C1COc2ccc(cc2)C[C@@H](C(=O)O)NC(=O)[C@H](Cc2ccccc2)NC(=O)[C@@H](Cc2cccc(Cl)c2)NC(=O)[C@H](Cc2cccs2)N1 [Compound 356] |
| > 100 µM | Cc1ccc(C[C@H]2NC(=O)[C@H](O)[C@@H](O)C(=O)Nc3ccc(cc3)C[C@@H](C(=O)O)NC(=O)[C@@H](Cc3ccccc3)NC(=O)[C@H](Cc3ccc(-c4ccccc4)cc3)NC2=O)cc1 [Compound 264] |
| > 100 µM | O=C1CCC(=O)N[C@H](Cc2cccs2)C(=O)N[C@@H](C2Cc3ccccc3C2)C(=O)N[C@H](Cc2ccccc2)C(=O)N[C@H](C(=O)O)Cc2ccc(cc2)N1 [Compound 99] ([d2Thi][Igl][dF][Phe(4-NH2)]-OH; linker N-4 via Suc) |
| < 10 µM | O=C(O)CCCNC(=O)[C@H]1Cc2ccc(cc2)OCC(=O)N[C@@H](Cc2c[nH]c3ccccc23)C(=O)N[C@H](Cc2ccc(-c3ccccc3)cc2)C(=O)N[C@@H](Cc2c[nH]c3ccccc23)C(=O)N1 [Compound 716] |
| > 100 µM | O=C1COc2ccc(cc2)C[C@@H](C(=O)O)NC(=O)[C@@H](Cc2ccc(F)cc2)NC(=O)[C@H](Cc2ccc(-c3ccccc3)cc2)NC(=O)[C@@H](Cc2cccs2)N1 [Compound 532] |
| > 100 µM | N[C@H]1CC(=O)N[C@H](Cc2cccs2)C(=O)N[C@@H](Cc2ccc(-c3ccccc3)cc2)C(=O)N[C@H](Cc2ccccc2)C(=O)N[C@H](C(=O)O)Cc2ccc(cc2)NC1=O [Compound 373] |
| > 100 µM | O=C(O)CNC(=O)[C@@H]1Cc2ccc(cc2)NC(=O)CCC(=O)N[C@H](Cc2ccccc2)C(=O)N[C@@H](Cc2ccc(-c3ccccc3)cc2)C(=O)N[C@H](CCc2ccccc2)C(=O)N1 [Compound 462] ([dF][Bip][d(hPhe)][Phe(4-NH2)]G-OH; linker N-4 via Suc) |
| > 100 µM | COC(=O)[C@@H]1Cc2ccc(cc2)OCC(=O)N[C@@H](Cc2cccs2)C(=O)N[C@H](Cc2ccc(-c3ccccc3)cc2)C(=O)N[C@@H](CCc2ccccc2)C(=O)N1 [Compound 615] |
| > 100 µM | O=C(O)[C@@H]1Cc2ccc(cc2)NC(=O)[C@H](O)[C@@H](O)C(=O)N[C@H](Cc2cccs2)C(=O)N[C@@H](Cc2ccc(C(F)(F)F)cc2)C(=O)N[C@H](Cc2ccccc2)C(=O)N1 [Compound 178] |
| 30 to 100 µM | CC(=O)O[C@H]1C(=O)Nc2ccc(cc2)C[C@H](C(=O)O)NC(=O)[C@@H](CCc2ccccc2)NC(=O)[C@H](Cc2ccc(Cl)cc2Cl)NC(=O)[C@@H](Cc2cccs2)NC(=O)[C@@H]1OC(C)=O [Compound 221] ([d2Thi][Phe(2,4-Cl2)][d(hPhe)][dPhe(4-NH2)]-OH; linker N-4 via Tartaroyl(2R,3R-(OAc)2)) |
| 10 to 30 µM | CC(=O)O[C@H]1C(=O)Nc2ccc(cc2)C[C@@H](C(=O)O)NC(=O)[C@@H](CCc2ccccc2)NC(=O)[C@H](Cc2ccc(-c3ccccc3)cc2)NC(=O)[C@@H](Cc2ccccc2)NC(=O)[C@@H]1OC(C)=O [Compound 235] ([dF][Bip][d(hPhe)][Phe(4-NH2)]-OH; linker N-4 via Tartaroyl(2R,3R-(OAc)2)) |
| > 100 µM | O=C1CCC(=O)N[C@H](Cc2cccs2)C(=O)N[C@@H](Cc2ccc(-c3ccccc3)cc2)C(=O)N[C@H](Cc2cccnc2)C(=O)N[C@H](C(=O)O)Cc2ccc(cc2)N1 [Compound 51] ([d2Thi][Bip][d3Pal][Phe(4-NH2)]-OH; linker N-4 via Suc) |
| 30 to 100 µM | CC(C)(C)OC(=O)CC[C@@H]1NC(=O)[C@H](Cc2ccc(-c3ccccc3)cc2)NC(=O)[C@H](Cc2cccs2)NC(=O)COc2ccc(cc2)C[C@@H](C(=O)O)NC1=O [Compound 259] |
| > 100 µM | O=C(O)[C@@H]1Cc2ccc(cc2)NC(=O)[C@H](O)[C@@H](O)C(=O)N[C@H](Cc2cccs2)C(=O)N[C@H](Cc2ccc(-c3ccccc3)cc2)C(=O)N[C@H](Cc2ccccc2)C(=O)N1 [Compound 269] |
| 30 to 100 µM | O=C1CCC(=O)N[C@H](Cc2cccs2)C(=O)N[C@@H](Cc2ccc(-c3ccccc3)cc2)C(=O)N[C@H](CCc2ccccc2)C(=O)N[C@H](C(=O)NC2(C(=O)O)CC2)Cc2ccc(cc2)N1 [Compound 451] ([d2Thi][Bip][d(hPhe)][Phe(4-NH2)][Ac3c]-OH; linker N-4 via Suc) |
